Experimental data published in ChEMBL document CHEMBL4334438, “Discovery of novel glycogen synthase kinase-3α inhibitors: Structure-based virtual screening, preliminary SAR and biological evaluation for treatment of acute myeloid leukemia” (Eur J Med Chem, 2019).

Assays:
[1] = molecular target: SRSF protein kinase 3 (Homo sapiens) (UniProt Q9UPE1); assay: Inhibition of recombinant full-length human MSSK1 assessed as residual activity at 1 uM using ERMRPRKRQGSVRRRV as substrate measured after 40 mins in presence of [gamma33P]ATP by scintillation counting method relative to control
Sequence of SRSF protein kinase 3 (Homo sapiens) (Q9UPE1 whole entry): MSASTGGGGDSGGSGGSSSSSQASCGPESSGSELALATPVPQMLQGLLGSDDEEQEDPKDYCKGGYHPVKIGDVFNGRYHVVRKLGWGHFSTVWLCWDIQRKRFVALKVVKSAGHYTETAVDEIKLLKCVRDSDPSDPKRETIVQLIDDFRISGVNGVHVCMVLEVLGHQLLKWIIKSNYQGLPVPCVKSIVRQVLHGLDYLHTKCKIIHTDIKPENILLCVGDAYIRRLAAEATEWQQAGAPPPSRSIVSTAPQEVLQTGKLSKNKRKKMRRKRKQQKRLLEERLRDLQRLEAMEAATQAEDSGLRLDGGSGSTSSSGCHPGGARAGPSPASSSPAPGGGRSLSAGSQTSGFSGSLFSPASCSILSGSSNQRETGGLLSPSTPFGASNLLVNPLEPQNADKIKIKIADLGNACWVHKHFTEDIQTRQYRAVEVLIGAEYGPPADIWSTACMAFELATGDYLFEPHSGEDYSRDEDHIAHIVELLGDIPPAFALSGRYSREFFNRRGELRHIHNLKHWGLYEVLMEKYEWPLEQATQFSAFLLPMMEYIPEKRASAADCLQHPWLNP

[2] = molecular target: Eukaryotic translation initiation factor 2-alpha kinase 1 (Homo sapiens) (UniProt Q9BQI3); assay: Inhibition of human HRI (140 to end residues) assessed as residual activity at 1 uM using RSRSRSRSRSRSRSR as substrate after 120 mins by [gamma-33ATP] radiometric assay relative to control
Sequence of Eukaryotic translation initiation factor 2-alpha kinase 1 (Homo sapiens) (Q9BQI3 whole entry, the tested form may be a part): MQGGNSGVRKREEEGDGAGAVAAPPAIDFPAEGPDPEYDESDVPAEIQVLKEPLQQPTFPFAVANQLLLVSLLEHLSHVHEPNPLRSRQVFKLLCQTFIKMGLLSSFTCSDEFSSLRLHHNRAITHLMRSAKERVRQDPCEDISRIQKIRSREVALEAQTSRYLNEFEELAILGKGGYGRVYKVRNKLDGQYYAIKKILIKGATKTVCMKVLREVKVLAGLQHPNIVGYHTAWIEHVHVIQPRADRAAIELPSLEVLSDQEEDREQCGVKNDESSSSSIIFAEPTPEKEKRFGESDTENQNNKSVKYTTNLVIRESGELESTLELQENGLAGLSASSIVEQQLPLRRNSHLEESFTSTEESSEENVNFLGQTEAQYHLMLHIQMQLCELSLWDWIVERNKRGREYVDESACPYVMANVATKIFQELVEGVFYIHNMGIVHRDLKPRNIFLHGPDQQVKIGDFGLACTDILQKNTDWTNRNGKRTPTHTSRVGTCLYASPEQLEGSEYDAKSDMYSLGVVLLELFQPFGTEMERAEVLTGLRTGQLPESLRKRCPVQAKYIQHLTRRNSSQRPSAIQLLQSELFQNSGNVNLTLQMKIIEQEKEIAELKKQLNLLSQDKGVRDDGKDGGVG

[3] = molecular target: Phosphatidylinositol 4-phosphate 3-kinase C2 domain-containing subunit alpha (Homo sapiens) (UniProt O00443); assay: Inhibition of recombinant human PI3KC2alpha (299 to end residues) at 1 uM assessed as residual activity at 1 uM using phosphatidylinositol as substrate measured after 40 mins by HTRF assay
[4] = molecular target: Serine/threonine-protein kinase NIM1 (Homo sapiens) (UniProt Q8IY84); assay: Inhibition of recombinant full length human NIM1 assessed as residual activity at 1 uM using KKKVSRSGLYRSPSMPENLNRPR as substrate measured after 40 mins in presence of [gamma33P]ATP by scintillation counting method relative to control
[5] = molecular target: Platelet-derived growth factor receptor alpha (Homo sapiens) (UniProt P16234); assay: Inhibition of human PDGFRalpha (550 to end residues) assessed as residual activity at 1 uM poly(Glu, Tyr) 4:1 as substrate measured after 40 mins in presence of [gamma33P]ATP by scintillation counting method relative to control
Sequence of Platelet-derived growth factor receptor alpha (Homo sapiens) (P16234 whole entry): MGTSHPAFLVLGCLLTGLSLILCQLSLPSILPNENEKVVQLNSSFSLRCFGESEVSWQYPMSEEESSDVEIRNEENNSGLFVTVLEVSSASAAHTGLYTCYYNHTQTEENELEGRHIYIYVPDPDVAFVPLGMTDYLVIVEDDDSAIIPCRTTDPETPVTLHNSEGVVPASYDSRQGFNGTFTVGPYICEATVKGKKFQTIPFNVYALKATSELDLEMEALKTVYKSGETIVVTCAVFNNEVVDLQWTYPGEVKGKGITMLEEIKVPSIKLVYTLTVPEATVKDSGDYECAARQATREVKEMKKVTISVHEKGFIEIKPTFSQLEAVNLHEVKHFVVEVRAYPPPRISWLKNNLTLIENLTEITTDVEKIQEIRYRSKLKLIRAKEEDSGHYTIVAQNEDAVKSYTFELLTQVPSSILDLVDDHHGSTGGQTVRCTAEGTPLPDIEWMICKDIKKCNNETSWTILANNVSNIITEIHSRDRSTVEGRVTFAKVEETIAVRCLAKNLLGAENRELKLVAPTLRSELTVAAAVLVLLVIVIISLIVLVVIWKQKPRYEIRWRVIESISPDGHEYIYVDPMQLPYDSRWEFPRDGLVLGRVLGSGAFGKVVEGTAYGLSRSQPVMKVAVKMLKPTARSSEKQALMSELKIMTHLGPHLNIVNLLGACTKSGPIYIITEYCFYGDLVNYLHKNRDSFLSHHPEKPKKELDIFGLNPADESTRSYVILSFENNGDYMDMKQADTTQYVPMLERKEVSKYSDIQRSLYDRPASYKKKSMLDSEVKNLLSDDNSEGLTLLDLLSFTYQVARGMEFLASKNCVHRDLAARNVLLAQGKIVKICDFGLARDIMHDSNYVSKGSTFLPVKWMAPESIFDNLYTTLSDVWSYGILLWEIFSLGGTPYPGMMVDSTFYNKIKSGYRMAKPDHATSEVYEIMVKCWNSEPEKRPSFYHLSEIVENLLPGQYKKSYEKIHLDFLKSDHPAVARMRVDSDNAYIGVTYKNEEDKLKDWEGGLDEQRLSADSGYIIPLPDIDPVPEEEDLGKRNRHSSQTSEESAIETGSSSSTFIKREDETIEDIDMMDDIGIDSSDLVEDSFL

[6] = test system: Eukaryotic elongation factor 2 kinase (Homo sapiens), O00418 [H23R]; assay: Inhibition of recombinant human eEF-2K H23R mutant (2 to end residues) assessed as residual activity at 1 uM using RKKFGESEKTKTKEFL as substrate at 40 mins in presence of [gamma-33ATP] by scintillation counting based radiometry assay relative to control
Sequence of Eukaryotic elongation factor 2 kinase (Homo sapiens), O00418 [H23R] (O00418 whole entry H23R): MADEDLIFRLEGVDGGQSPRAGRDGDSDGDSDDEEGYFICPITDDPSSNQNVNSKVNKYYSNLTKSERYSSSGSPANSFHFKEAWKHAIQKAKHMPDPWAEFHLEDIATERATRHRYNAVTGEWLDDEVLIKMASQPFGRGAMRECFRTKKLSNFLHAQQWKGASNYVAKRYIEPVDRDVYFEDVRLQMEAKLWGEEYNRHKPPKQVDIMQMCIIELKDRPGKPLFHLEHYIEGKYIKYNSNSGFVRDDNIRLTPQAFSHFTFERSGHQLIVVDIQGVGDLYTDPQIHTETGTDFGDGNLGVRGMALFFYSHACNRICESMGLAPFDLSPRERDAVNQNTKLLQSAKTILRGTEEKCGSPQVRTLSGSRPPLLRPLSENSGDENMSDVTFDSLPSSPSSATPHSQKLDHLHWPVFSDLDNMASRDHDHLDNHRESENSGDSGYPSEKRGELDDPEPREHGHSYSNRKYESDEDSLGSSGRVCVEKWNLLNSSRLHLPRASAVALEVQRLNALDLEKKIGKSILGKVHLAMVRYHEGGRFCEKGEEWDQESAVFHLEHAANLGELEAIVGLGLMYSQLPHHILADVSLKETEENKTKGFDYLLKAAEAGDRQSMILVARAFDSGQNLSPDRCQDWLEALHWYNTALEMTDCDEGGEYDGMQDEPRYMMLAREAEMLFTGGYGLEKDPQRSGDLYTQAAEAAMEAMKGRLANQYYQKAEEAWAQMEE

[7] = molecular target: Tyrosine-protein kinase Lck (Homo sapiens) (UniProt P06239); assay: Inhibition of recombinant full length human LCK assessed as residual activity at 1 uM using KVEKIGEGTYGVVYK as substrate after 40 mins in presence of [gamma-33ATP] by scintillation counting based radiometry assay relative to control
[8] = molecular target: Dual specificity mitogen-activated protein kinase kinase 1 (Homo sapiens) (UniProt Q02750); assay: Inhibition of recombinant human MEK1 assessed as residual activity at 1 uM using inactive MAPK2 as substrate incubated for 40 mins in presence of [gamma-33ATP by scintillation counting based radiometry assay relative to control
Sequence of Dual specificity mitogen-activated protein kinase kinase 1 (Homo sapiens) (Q02750 whole entry): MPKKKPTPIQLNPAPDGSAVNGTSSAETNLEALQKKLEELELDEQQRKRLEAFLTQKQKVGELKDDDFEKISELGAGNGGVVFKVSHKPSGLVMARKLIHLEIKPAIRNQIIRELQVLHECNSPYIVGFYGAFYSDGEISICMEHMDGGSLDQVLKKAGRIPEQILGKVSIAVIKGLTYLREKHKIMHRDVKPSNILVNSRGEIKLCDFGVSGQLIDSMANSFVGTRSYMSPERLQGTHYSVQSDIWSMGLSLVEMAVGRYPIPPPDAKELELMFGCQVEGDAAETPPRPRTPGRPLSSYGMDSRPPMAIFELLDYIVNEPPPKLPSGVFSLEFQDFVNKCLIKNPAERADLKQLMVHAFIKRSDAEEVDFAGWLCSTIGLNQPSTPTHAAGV

[9] = test system: Tyrosine-protein kinase receptor UFO (Homo sapiens), P30530 [Q764R]; assay: Inhibition of recombinant human Axl Q764R mutant (473 to end residues) assessed as residual activity at 1 uM using KKSRGDYMTMQIG as substrate incubated for 40 mins in presence of [gamma-33ATP] by scintillation counting based radiometry assay relative to control
[10] = molecular target: Serine/threonine-protein kinase WNK3 (Homo sapiens) (UniProt Q9BYP7); assay: Inhibition of human WNK3 (1 to 434 residues) assessed as residual activity at 1 uM using myelin basic protein as substrate measured after 40 mins in presence of [gamma33P]ATP by scintillation counting method relative to control
[11] = molecular target: Mitogen-activated protein kinase kinase kinase 9 (Homo sapiens) (UniProt P80192); assay: Inhibition of recombinant human MLK1 (134 to 414 residues) assessed as residual activity at 1 uM using casein as substrate incubated for 40 mins in presence of [gamma-33ATP by scintillation counting based radiometry assay relative to control
[12] = molecular target: Insulin receptor-related protein (Homo sapiens) (UniProt P14616); assay: Inhibition of human IRR (943 to 1266 residues) assessed as residual activity at 1 uM using myelin basic protein as substrate after 40 mins by [gamma-33ATP] radiometric assay relative to control
[13] = molecular target: Tyrosine-protein kinase Fes/Fps (Homo sapiens) (UniProt P07332); assay: Inhibition of recombinant human FES (2 to end residues) assessed as residual activity at 1 uM using poly(Glu, Tyr) 4:1 as substrate at 40 mins in presence of [gamma-33ATP] by scintillation counting based radiometry assay relative to control
Sequence of Tyrosine-protein kinase Fes/Fps (Homo sapiens) (P07332 whole entry): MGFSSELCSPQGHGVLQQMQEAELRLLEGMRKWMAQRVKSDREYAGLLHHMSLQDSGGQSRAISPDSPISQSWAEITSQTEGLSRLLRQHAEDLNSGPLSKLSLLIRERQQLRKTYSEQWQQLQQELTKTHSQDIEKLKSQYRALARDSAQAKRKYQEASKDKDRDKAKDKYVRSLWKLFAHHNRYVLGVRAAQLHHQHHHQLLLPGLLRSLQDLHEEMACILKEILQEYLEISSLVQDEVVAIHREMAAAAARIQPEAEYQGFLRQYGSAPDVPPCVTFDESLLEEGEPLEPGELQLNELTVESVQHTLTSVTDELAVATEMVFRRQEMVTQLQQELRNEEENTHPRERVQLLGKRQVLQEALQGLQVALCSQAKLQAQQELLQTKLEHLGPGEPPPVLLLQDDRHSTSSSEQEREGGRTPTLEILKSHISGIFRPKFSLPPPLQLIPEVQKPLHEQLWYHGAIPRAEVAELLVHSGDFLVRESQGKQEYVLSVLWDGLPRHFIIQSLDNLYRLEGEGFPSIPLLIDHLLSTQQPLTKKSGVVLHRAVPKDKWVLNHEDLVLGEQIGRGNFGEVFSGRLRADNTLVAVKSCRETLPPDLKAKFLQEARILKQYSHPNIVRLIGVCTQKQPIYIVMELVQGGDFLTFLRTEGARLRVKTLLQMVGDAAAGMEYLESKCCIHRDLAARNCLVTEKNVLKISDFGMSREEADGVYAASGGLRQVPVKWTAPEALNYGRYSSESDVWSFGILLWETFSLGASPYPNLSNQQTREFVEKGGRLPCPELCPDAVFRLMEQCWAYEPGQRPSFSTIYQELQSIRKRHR

[14] = molecular target: Inhibitor of nuclear factor kappa-B kinase subunit beta (Homo sapiens) (UniProt O14920); assay: Inhibition of full length human IKKbeta assessed as residual activity at 1 uM using peptide as substrate after 40 mins by [gamma-33ATP] radiometric assay relative to control
[15] = test system: Hepatocyte growth factor receptor (Homo sapiens), P08581 [D1228H]; assay: Inhibition of recombinant human MET A1209G/V1290L/D1246H mutant (974 to end residues) assessed as residual activity at 1 uM using KKKGQEEEYVFIE as substrate incubated for 40 mins in presence of [gamma-33ATP by scintillation counting based radiometry assay relative to control
[16] = molecular target: Serine/threonine-protein kinase Chk1 (Homo sapiens) (UniProt O14757); assay: Inhibition of recombinant full length human CHK1 assessed as residual activity at 1 uM using KKKVSRSGLYRSP as substrate incubated for 40 mins in presence of [gamma-33ATP] by scintillation counting based radiometry assay relative to control
[17] = molecular target: Serine/threonine-protein kinase TAO2 (Homo sapiens) (UniProt Q9UL54); assay: Inhibition of human TAO2 (1 to 320 residues) assessed as residual activity at 1 uM using myelin basic protein as substrate measured after 40 mins in presence of [gamma33P]ATP by scintillation counting method relative to control
[18] = molecular target: CDK6/cyclin D3 (Homo sapiens) (UniProt P30281+Q00534); assay: Inhibition of recombinant full length human CDK6/cyclinD3 assessed as residual activity at 1 uM using histone H1 as substrate incubated for 40 mins in presence of [gamma-33ATP] by scintillation counting based radiometry assay relative to control; assay type: protein-complex assay
[19] = molecular target: Mitogen-activated protein kinase 13 (Homo sapiens) (UniProt O15264); assay: Inhibition of recombinant human full length SAPK4 assessed as residual activity at 1 uM using myelin basic protein as substrate measured after 40 mins in presence of [gamma33P]ATP by scintillation counting method relative to control
[20] = molecular target: Cytoplasmic tyrosine-protein kinase BMX (Homo sapiens) (UniProt P51813); assay: Inhibition of recombinant full length human BMX assessed as residual activity at 1 uM using poly(Glu, Tyr) 4:1 as substrate incubated for 40 mins in presence of [gamma-33ATP] by scintillation counting based radiometry assay relative to control
Sequence of Cytoplasmic tyrosine-protein kinase BMX (Homo sapiens) (P51813 whole entry): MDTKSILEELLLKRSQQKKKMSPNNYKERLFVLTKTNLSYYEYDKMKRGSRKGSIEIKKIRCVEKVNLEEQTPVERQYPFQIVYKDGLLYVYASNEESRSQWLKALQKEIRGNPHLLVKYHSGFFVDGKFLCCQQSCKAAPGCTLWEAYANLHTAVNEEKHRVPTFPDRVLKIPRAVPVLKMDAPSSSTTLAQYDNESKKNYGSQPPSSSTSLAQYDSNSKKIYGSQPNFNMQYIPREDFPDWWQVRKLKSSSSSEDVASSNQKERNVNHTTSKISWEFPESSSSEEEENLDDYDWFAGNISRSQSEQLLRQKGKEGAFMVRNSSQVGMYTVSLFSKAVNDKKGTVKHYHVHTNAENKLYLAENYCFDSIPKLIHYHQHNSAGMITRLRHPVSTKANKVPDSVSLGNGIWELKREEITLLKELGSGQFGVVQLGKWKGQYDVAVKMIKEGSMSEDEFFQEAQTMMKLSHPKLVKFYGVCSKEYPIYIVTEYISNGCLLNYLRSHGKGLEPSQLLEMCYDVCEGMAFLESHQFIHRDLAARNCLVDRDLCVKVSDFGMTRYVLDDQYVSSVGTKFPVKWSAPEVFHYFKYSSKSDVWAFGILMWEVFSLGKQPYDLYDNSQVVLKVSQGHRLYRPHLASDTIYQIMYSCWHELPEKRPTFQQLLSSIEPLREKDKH

[21] = molecular target: CDK2/Cyclin A1 (Homo sapiens) (UniProt P24941+P78396); assay: Inhibition of recombinant full length human CDK2/CyclinA assessed as residual activity at 1 uM using Histone H1 as substrate incubated for 40 mins in presence of [gamma-33ATP] by scintillation counting based radiometry assay relative to control; assay type: protein-complex assay

| SMILES | Activity [1] [%] | Activity [2] [%] | Activity [3] [%] | Activity [4] [%] | Activity [5] [%] | Activity [6] [%] | Activity [7] [%] | Activity [8] [%] | Activity [9] [%] | Activity [10] [%] | Activity [11] [%] | Activity [12] [%] | Activity [13] [%] | Activity [14] [%] | Activity [15] [%] | Activity [16] [%] | Activity [17] [%] | Activity [18] [%] | Activity [19] [%] | Activity [20] [%] | also measured |
| --- | --- | --- | --- | --- | --- | --- | --- | --- | --- | --- | --- | --- | --- | --- | --- | --- | --- | --- | --- | --- | --- |
| C=CCOC(=O)c1cc(-c2ccc(/C=C3/NC(=S)NC3=O)o2)ccc1Cl | 99 | 101 | 87 | 95 | 92 | 98 | 86 | 96 | 101 | 102 | 99 | 45 | 91 | 129 | 110 | 103 | 100 | 84 | 89 | 103 | Activity [21]: 54% |
| N=C1NC(=O)/C(=C\c2ccc(-c3cccc([N+](=O)[O-])c3)o2)S1 | 96 | 96 | 100 | 101 | 104 | 95 | 89 | 88 | 98 | 99 | 98 | 55 | 103 | 62 | 92 | 102 | 79 | 92 | 97 | 101 | Activity [21]: 61% |
